Blank lines part the entries; values can stand above or below the compound they belong to. Bridge positions count the residues as written; N and C are the ends. Peptide text beside a SMILES is read from it.
Legend:
[1] = molecular target: T1, trypsin (Bos taurus, UniProt P00760); experiment: in vitro
T1 sequence (P00760 24-246): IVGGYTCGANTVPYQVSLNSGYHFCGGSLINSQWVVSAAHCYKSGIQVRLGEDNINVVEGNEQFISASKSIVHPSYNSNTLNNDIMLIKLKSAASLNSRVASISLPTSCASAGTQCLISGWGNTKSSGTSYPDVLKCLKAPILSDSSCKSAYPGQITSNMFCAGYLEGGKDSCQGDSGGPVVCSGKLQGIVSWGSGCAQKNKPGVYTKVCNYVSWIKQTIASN
Protocol: FIG. 17. […] At different time point, 25 μL aliquots was taken out, and 10% (v/v) TFA was added to terminate the reaction.
(§1) Mix by centrifugation at 8000 rpm for 30 seconds.
(§2) Arrange a certain volume of 0.05 μg/μL trypsin solution in another sterile EP. Incubate the EP tubes containing peptides and enzymes at 37° C. for 5 min, and separately add 6 μL of trypsin solution to each EP tube containing peptides and mix well. Start timing and extract 25 μL of reaction solution at 1.5, 3.0, 4.5, 6.0 and 9.0 min later, respectively. Add 3.75 μL of 10% TFA to terminate the reaction and mix well by centrifugation at 8000 rpm for 30 seconds.
as §2, with “and” for “and separately”, “9” for “6”, “6.0, 9.0, 15.0, 30.0,” for “6.0”, “60.0” for “9.0”
(§3) Referring to the experimental method in Example 5, in vitro stability of salmon Calcitonin analogs with oral administration activity to the enzymatic hydrolysis by trypsin, chymotrypsin and elastase were performed.
(§4) Referring to the experimental method in Example 5, in vitro stability of IL-17A inhibitory peptides towards the enzymatic hydrolysis by trypsin, chymotrypsin and elastase were performed.

[2] = molecular target: chymotrypsin (Bos taurus, UniProt P00766); experiment: in vitro
Protocol: FIG. 18. […] At different time point, 25 μL aliquots was taken out, and 10% (v/v) TFA was added to terminate the reaction.
as §1
as §2, with “μg/μL chymotrypsin” for “μg/μL trypsin”, “and” for “and separately”, “add 3” for “add 6”
as §2, with “chymotrypsin” for “trypsin”, “then” for “separately”, “4.5” for “6”, “6.0, 9.0, 15.0, 30.0,” for “6.0”, “60.0” for “9.0”
as §3, §4

[3] = molecular target: porcine pancreatic elastase (Sus scrofa, UniProt P00772); experiment: Elastase inhibitory activity of peptides (AAApNA hydrolysis; IC50, Ki, residual activity); assay type: biochemical; conditions: for IC50: elastase 0.5 μM, AAApNA 1 mM
Chain of porcine pancreatic elastase (P00772 27-266): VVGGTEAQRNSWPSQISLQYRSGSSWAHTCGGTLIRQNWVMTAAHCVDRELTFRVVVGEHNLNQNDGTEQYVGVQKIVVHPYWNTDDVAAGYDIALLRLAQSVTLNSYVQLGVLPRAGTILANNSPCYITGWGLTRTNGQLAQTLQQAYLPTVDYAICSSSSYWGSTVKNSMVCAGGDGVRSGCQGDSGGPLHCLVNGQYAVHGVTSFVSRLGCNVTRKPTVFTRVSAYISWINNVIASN
Protocol: The inhibition constants of various synthetic active peptide inhibitors (molecular scaffolds) against seine proteases were measured. The substrates N-succinyl-Ala-Ala-Pro-Phe-p-nitroaniline (AAPFpNA), Nα—Benzoyl-L-arginine-4-nitroaniline hydrochloride (BApNA) and N-succinyl-[…] (AAApNA) are used in competitive binding reaction to determine the inhibitory activities against α-chymotrypsin, bovine trypsin, and porcine pancreatic elastase, respectively. Experiments for α-chymotrypsin and bovine trypsin inhibition were measured in 20 mM CaCl2, 50 mM Tris-HCl buffer (pH 7.8), and that for porcine elastase inhibition was measured in 50 mM Tris-HCl buffer (pH 8.0). The concentration of the peptide was measured using optical density (OD) at 280 nm. The Michaelis constant (Km) of the enzyme hydrolysis substrate is calculated from the initial rate of substrate hydrolysis at 405 nm. The absorbance value of the substrate was measured at 405 nm after complete hydrolysis. All data were processed using nonlinear regression.
• (1) Added a total 198 μL of reaction buffer (20 mM CaCl2, 50 mM Tris-HCl (pH 8.0)) into the 96 well plate, followed by preheating at 37° C. for 15 min. Then added 2 μL of different concentrations of substrates (pNA, dissolved in DMSO), and mixed by centrifugation at 500 rpm for 1 min. Finally, the plate was incubated at 37° C. for 30 min, and the absorbance value at 405 nm was measured. In the 200 μL of reaction system, the final concentrations of pNA were 0, 0.025, 0.05, 0.075, 0.1, 0.125, 0.15, 0.175, and 0.2 mM, respectively. Make three repetitions for each concentration and plot the OD405 m value with pNA concentration to obtain the standard curve. • (2) Added a total 190 μL of reaction buffer (20 mM CaCl2, 50 mM Tris-HCl (pH 8.0)) and 8 μL of 4.375 μM elastase into the 96 well plate, followed by preheating at 37° C. for 5 min. Then added 2 μL of different concentrations of substrates (AAApNA, dissolved in DMSO), and mixed by centrifugation at 500 rpm for 1 min. Finally, the plate was incubated at 37° C. for 30 min, and the absorbance value at 405 nm was measured. In the 200 μL of reaction system, the final concentrations of AAApNA were 0, 0.125, 0.166, 0.2, 0.25, 0.33, 0.6, 0.75, and 1.25 mM, respectively. Make three repetitions for each concentration and plot the OD405 nm value with time to obtain the corresponding curve. Divide the slope of the curve by the slope of the standard curve and the enzyme concentration to obtain the initial velocity V0 (mM/(min*mM protein). Plot the initial velocity V0 with the concentration of substrate AAApNA using Prism software, and the Michaelis constant Km value of elastase hydrolyzing AAApNA was obtained.
• (1) Added a total 190 μL of different concentrations of peptides (ECs) against elastase and reaction buffer (20 mM CaCl2, 50 mM Tris-HCl buffer (pH 8.0)) into the pre-cold 96 well plate, followed by preheating at 37° C. for 5 min and centrifugated at 500 rpm for 1 min and allowed to stand for 4 minutes. Then added 8 μL of 12.5 μM elastase and incubated at 37° C. for 10 min and centrifugated at 500 rpm for 1 min and allowed to stand for 9 minutes. Finally, added 2 μL of 100 mM AAApNA, and mixed by centrifugation at 500 rpm for 1 min. The plate was incubated at 37° C. for 60 min, and the absorbance value at 405 nm was measured. Three repetitions were made, and only reaction buffer and substrate were added in the blank control as the minimum absorption value (Min OD405 nm); Only reaction buffer, enzyme and substrate were added in the negative control as the maximum absorption value (Max OD405 nm). • (2) In the 200 μL of reaction system, the final concentrations of elastase and AAApNA were 0.5 μM and 1 mM, respectively. • (3) Data statistics
Residual activity of enzyme (%)=(1−(Max OD405 nm−Sample OD405 nm)/(Max OD405 nm−Min OD405 nm))*100 […]

[4] = isolated enzyme trypsin, pH 7.8
[5] = isolated enzyme chymotrypsin, pH 7.8, Remaining peak area (%)/chymotrypsin

Structure (SMILES): CC[C@H](C)[C@@H]1NC(=O)[C@H](CO)NC(=O)[C@H](Cc2ccc(O)cc2)NC(=O)[C@H]([C@@H](C)O)NC(=O)[C@@H](NC(=O)[C@H](Cc2ccccc2)NC(=O)CNC(=O)[C@@H]2CCCN2C(=O)[C@@H](NC(=O)CNC(=O)[C@H](CO)NC(=O)CNC(=O)[C@@H](NC(=O)[C@H](CC(N)=O)NC(=O)[C@@H](NC(=O)[C@H](CCCNC(=N)N)NC(=O)[C@@H]2CCCN2C(=O)[C@H](Cc2ccc(O)cc2)NC(=O)[C@@H](NC(=O)[C@H](CCC(N)=O)NC(=O)[C@H](CC(C)C)NC(=O)[C@H](CCCCN)NC(=O)[C@H](Cc2c[nH]cn2)NC(=O)[C@H](C)NC(=O)[C@H](CCC(=O)O)NC(=O)[C@H](CCC(N)=O)NC(=O)[C@H](CO)NC(=O)[C@H](CC(C)C)NC(=O)[C@H](CCCCN)NC(=O)CNC(=O)[C@H](CC(C)C)NC(=O)CNC(=O)[C@@H]2CSSC[C@H](N)C(=O)N[C@@H](CO)C(=O)N[C@@H](CC(N)=O)C(=O)N[C@@H](CC(C)C)C(=O)N[C@@H](CO)C(=O)N[C@@H]([C@@H](C)O)C(=O)N2)[C@@H](C)O)[C@@H](C)O)[C@@H](C)O)[C@@H](C)O)CSSC[C@@H](C(=O)N[C@@H](Cc2ccc(O)cc2)C(=O)NCC(=O)O)NC(=O)[C@H](CCC(N)=O)NC(=O)[C@@H]2CCCN2C(=O)[C@@H]2CCCN2C1=O [Cal-CH]
- Remaining peak area (%)/Trypsin ([1]; 0 h): 100.0 ± 0.0%
- remaining at 0.025 h, 60 μM [1, 4]: 13.4 ± 2.3%
- remaining at 0.05 h, 60 μM [1, 4]: 0%
- remaining at 0.075 h, 60 μM [1, 4]: 0%
- remaining at 0.1 h, 60 μM [1, 4]: 0%
- remaining at 0.15 h, 60 μM [1, 4]: 0%
- stability towards chymotrypsin hydrolysis (in words) [2]: resistant to the corresponding protease degradation
- Remaining peak area (%)/chymotrypsin ([2]; 0 h): 100.0 ± 0.0%
- remaining at 0.025 h, 60 μM [2, 5]: 89.3 ± 2.9%
- remaining at 0.05 h, 60 μM [2, 5]: 90.9 ± 4.7%
- remaining at 0.075 h, 60 μM [2, 5]: 83.8 ± 0.4%
- remaining at 0.1 h, 60 μM [2, 5]: 82.2 ± 4.1%
- remaining at 0.15 h, 60 μM [2, 5]: 52.4%
- remaining at 0.25 h, 60 μM [2, 5]: 51.8 ± 0.4%
- remaining at 0.5 h, 60 μM [2, 5]: 51.2 ± 1.8%
- remaining at 1 h, 60 μM [2, 5]: 24.6 ± 0.5%

Structure (SMILES): CC[C@H](C)[C@@H]1NC(=O)[C@@H]2CCCN2C(=O)[C@@H]2CCCN2C(=O)[C@H]([C@@H](C)CC)NC(=O)[C@H](CO)NC(=O)[C@H](C)NC(=O)[C@H]([C@@H](C)O)NC(=O)[C@H](C)NC(=O)[C@H](CC(C)C)NC(=O)CNC(=O)[C@@H](N)CSSC[C@@H](C(=O)N[C@@H](CCC(N)=O)C(=O)O)NC1=O [EC6] (H-CGLATASIPPICQ-OH; disulfide 1-12; N-terminus and C-terminus assumed)
- IC50 [3]: > 50 µM

Structure (SMILES): CC[C@H](C)[C@@H]1NC(=O)[C@@H]2CCCN2C(=O)[C@@H]2CCCN2C(=O)[C@H]([C@@H](C)CC)NC(=O)[C@H](CO)NC(=O)[C@H](CC(C)C)NC(=O)[C@H]([C@@H](C)O)NC(=O)[C@H](C)NC(=O)[C@H](CC(C)C)NC(=O)CNC(=O)[C@@H](N)CSSC[C@@H](C(=O)N[C@@H](CCC(N)=O)C(=O)O)NC1=O [EC7] (H-CGLATLSIPPICQ-OH; disulfide 1-12; N-terminus and C-terminus assumed)
- inhibitory activity against elastase (in words) [3]: weaker inhibitory activity

The next lines start with results.

- Ki ([3]; read-out: Ki): 0.33 µM
Structure (SMILES): CC[C@H](C)[C@@H]1NC(=O)[C@H](CO)NC(=O)[C@H](C)NC(=O)[C@H]([C@@H](C)O)NC(=O)[C@@H](NC(=O)[C@@H](N)CC(C)C)CSSC[C@@H](C(=O)N[C@@H](Cc2ccc(O)cc2)C(=O)O)NC(=O)[C@H](CCC(N)=O)NC(=O)[C@@H]2CCCN2C(=O)[C@@H]2CCCN2C1=O [EC1] (H-LCTASIPPQCY-OH; disulfide 2-10; C-terminus assumed)
- inhibitory activity against elastase (in words) [3]: better inhibitory activity against Elastase

- IC50 [3]: > 50 µM
Structure (SMILES): CC[C@H](C)[C@@H]1NC(=O)[C@H](CO)NC(=O)[C@H](C)NC(=O)[C@H]([C@@H](C)O)NC(=O)[C@H](C)NC(=O)[C@H](CC(C)C)NC(=O)CNC(=O)[C@@H](N)CSSC[C@@H](C(=O)N[C@@H](Cc2ccc(O)cc2)C(=O)O)NC(=O)[C@H](CCC(N)=O)NC(=O)[C@@H]2CCCN2C(=O)[C@@H]2CCCN2C1=O [EC3] (H-CGLATASIPPQCY-OH; disulfide 1-12; N-terminus and C-terminus assumed)

- IC50 [3]: > 50 µM
Structure (SMILES): CC[C@H](C)[C@@H]1NC(=O)[C@H](CO)NC(=O)[C@H](C)NC(=O)[C@H]([C@@H](C)O)NC(=O)CNC(=O)[C@H](CC(C)C)NC(=O)CNC(=O)[C@@H](N)CSSC[C@@H](C(=O)N[C@@H](Cc2ccc(O)cc2)C(=O)O)NC(=O)[C@H](CCC(N)=O)NC(=O)[C@@H]2CCCN2C(=O)[C@@H]2CCCN2C1=O [EC4] (H-CGLGTASIPPQCY-OH; disulfide 1-12)

- IC50 [3]: > 50 µM
Structure (SMILES): CC[C@H](C)[C@@H]1NC(=O)[C@H](CO)NC(=O)[C@H](C)NC(=O)[C@H]([C@@H](C)O)NC(=O)[C@H](C)NC(=O)[C@H](CC(C)C)NC(=O)[C@@H](N)CSSC[C@@H](C(=O)N[C@@H](Cc2ccc(O)cc2)C(=O)O)NC(=O)[C@H](CCC(N)=O)NC(=O)[C@@H]2CCCN2C(=O)[C@@H]2CCCN2C1=O [EC5] (H-CLATASIPPQCY-OH; disulfide 1-11; N-terminus and C-terminus assumed)

From patent US20230416329A1, “A PEPTIDE WITH DISULFIDE BONDS AND INHIBITORY ACTIVITY AGAINST SERINE PROTEASES, DERIVED HYBRID PEPTIDES THEREOF, AND USES THEREOF” (INSTITUTE OF MATERIA MEDICA , CHINESE ACADEMY OF MEDICAL …, priority 2020, published 2023)
